# Data taken from ChEMBL document CHEMBL5576105, “Synthesis and biological evaluation of O4'-benzyl-hispidol derivatives and analogs as dual monoamine oxidase-B inhibitors and anti-neuroinflammatory agents” (Bioorg Med Chem, 2024).
# Active and inactive are the calls of the source. No cut-off for these calls is given here.
# How the values were obtained:
# [1] = target: T1, Amine oxidase [flavin-containing] B (Homo sapiens, UniProt P27338); assay: Inhibition of human recombinant MAO-B expressed in baculovirus-infected BTI cells at 10 uM using benzylamine as substrate preincubated with enzyme for 15 mins followed by substrate addition and measured after 20 mins by Amplex Red reagent based fluorescence analysis; details: time 35 min
# T1 sequence (P27338 whole entry): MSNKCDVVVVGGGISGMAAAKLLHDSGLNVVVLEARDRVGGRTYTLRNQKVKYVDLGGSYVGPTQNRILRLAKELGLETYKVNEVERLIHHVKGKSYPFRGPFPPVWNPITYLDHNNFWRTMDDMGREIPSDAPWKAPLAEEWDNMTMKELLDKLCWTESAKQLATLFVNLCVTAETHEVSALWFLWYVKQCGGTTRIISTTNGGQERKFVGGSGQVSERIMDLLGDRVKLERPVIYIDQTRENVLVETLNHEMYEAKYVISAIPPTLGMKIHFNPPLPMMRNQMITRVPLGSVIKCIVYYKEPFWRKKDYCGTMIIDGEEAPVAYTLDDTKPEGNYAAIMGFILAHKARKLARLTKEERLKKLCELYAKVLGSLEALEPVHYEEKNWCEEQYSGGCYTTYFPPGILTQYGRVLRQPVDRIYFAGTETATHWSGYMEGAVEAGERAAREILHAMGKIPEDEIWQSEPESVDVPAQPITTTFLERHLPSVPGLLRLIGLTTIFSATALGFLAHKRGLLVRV
# Homo sapiens = species on record: Homo sapiens; assay: Selectivity index, ratio of IC50 for inhibition of human recombinant MAO-A to IC50 for inhibition of human recombinant MAO-B expressed in baculovirus-infected BTI cells
# [2] = target: T1, Amine oxidase [flavin-containing] B; assay: Inhibition of human recombinant MAO-B expressed in baculovirus-infected BTI cells using benzylamine as substrate preincubated with enzyme for 15 mins followed by substrate addition and measured after 20 mins by Amplex Red reagent based fluorescence analysis
# [3] = target: T2, Amine oxidase [flavin-containing] A (Homo sapiens, UniProt P21397); assay: Inhibition of human recombinant MAO-A using p-tyramine as substrate preincubated with enzyme for 15 mins followed by substrate addition and measured after 20 mins by Amplex Red reagent based fluorescence analysis
# T2 sequence (P21397 whole entry): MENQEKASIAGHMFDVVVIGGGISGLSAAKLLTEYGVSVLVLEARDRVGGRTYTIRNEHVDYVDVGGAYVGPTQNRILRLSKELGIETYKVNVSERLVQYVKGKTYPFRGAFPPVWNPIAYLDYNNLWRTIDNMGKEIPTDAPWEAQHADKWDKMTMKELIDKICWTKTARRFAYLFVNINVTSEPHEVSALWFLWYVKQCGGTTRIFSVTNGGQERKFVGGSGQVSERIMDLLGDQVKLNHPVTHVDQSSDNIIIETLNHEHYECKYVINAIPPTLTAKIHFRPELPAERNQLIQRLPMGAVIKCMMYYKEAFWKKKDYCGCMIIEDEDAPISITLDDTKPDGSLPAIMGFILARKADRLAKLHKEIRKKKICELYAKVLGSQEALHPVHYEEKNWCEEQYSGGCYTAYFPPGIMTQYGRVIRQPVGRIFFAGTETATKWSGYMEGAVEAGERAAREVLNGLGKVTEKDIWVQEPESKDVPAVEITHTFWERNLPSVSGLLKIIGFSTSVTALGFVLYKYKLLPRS
# MAO-B = assay: Safety ratio of cytotoxicity against mouse BV-2 cells to IC50 for inhibition of human recombinant MAO-B expressed in baculovirus-infected BTI cells; format: toxicity
# BV-2 [4] = assay: Cytotoxicity against mouse BV-2 cells assessed as effect on cell viability upto 10 uM; format: toxicity, cell-based; details: bv-2, 10 µM
# BV-2 [5] = assay: Anti-neuroinflammatory activity against mouse BV-2 cells assessed as suppression of LPS-induced NO production; format: functional, cell-based
# BV-2 [6] = assay: Anti-neuroinflammatory activity against mouse BV-2 cells assessed as suppression of LPS-induced PGE2 production; format: functional, cell-based; details: dose 5-10 µM
# BV-2 [7] = assay: Anti-neuroinflammatory activity against mouse BV-2 cells assessed as suppression of LPS-induced PGE2 production at 5 to 10 uM; format: functional, cell-based; details: dose 5-10 µM
# BV-2 [8] = assay: Anti-neuroinflammatory activity against mouse BV-2 cells assessed as suppression of LPS-induced NO production at 10 uM; format: functional, cell-based
# BV-2 [9] = assay: Cytotoxicity against mouse BV-2 cells assessed as effect on cell viability at 30 uM; format: toxicity, cell-based; details: bv-2, 30 µM
# BV-2 [10] = assay: Anti-neuroinflammatory activity against mouse BV-2 cells assessed as suppression of LPS-induced NO production at 1 uM; format: functional, cell-based
# BV-2 [11] = assay: Anti-neuroinflammatory activity against mouse BV-2 cells assessed as suppression of LPS-induced NO production at 3 uM; format: functional, cell-based
# [12] = target: T1, Amine oxidase [flavin-containing] B; assay: Irreversible inhibition of MAO-B (unknown origin) measured after drug wash-out
# BV-2 [13] = assay: Anti-neuroinflammatory activity against mouse BV-2 cells assessed as suppression of LPS-induced PGE2 production at 10 uM; format: functional, cell-based
Structure (SMILES),inhibition at 10 µM [1],Ratio IC50 (Homo sapiens),IC50 [2],IC50 [3],other results
O=C1/C(=C/c2ccc(OCc3cccc(F)c3)cc2)Oc2cc(O)ccc21,55.3%,,,,
O=C1/C(=C/c2cccc(OCc3cccc(Cl)c3)c2)Oc2cc(O)ccc21,61.7%,> 52.3,1910 nM,> 100000 nM,
O=C1/C(=C/c2ccc(OCc3ccc(Br)cc3)cc2)Oc2cc(O)ccc21,41.1%,,,,
O=C1/C(=C/c2cccc(OCc3ccccc3Br)c2)Oc2cc(O)ccc21,36%,,,,
O=C1/C(=C/c2ccc(OCc3cccc(Br)c3)cc2)Oc2cc(O)ccc21,67.9%,> 106,950 nM,> 100000 nM,selectivity ratio (MAO-B): 10.6; Activity (BV-2 [4]): Non-Toxic
O=C1/C(=C/c2cccc(OCc3cccc(Br)c3)c2)Oc2cc(O)ccc21,62.7%,> 49.6,2020 nM,> 100000 nM,
O=C1/C(=C/c2cccc(OCc3cccc(F)c3)c2)Oc2cc(O)ccc21,55.1%,,,,
O=C1/C(=C/c2ccc(OCc3cccc(Cl)c3)cc2)Oc2cc(O)ccc21,59%,,,,
O=C1/C(=C/c2cccc(OCc3ccc(Cl)cc3)c2)Oc2cc(O)ccc21,70.7%,> 55.2,1810 nM,> 100000 nM,
COc1cccc(COc2ccc(/C=C3\Oc4cc(O)ccc4C3=O)cc2)c1,59.7%,,,,
O=C1/C(=C/c2ccc(OCc3ccccc3Br)cc2)Oc2cc(O)ccc21,81.7%,> 227,440 nM,> 100000 nM,selectivity ratio (MAO-B): > 6
O=C1/C(=C/c2cccc(OCc3ccc(F)cc3)c2)Oc2cc(O)ccc21,60.7%,> 42.2,2370 nM,> 100000 nM,
O=C1/C(=C/c2ccc(OCc3ccccc3)cc2)Oc2cc(O)ccc21,86.7%,> 138,720 nM,> 100000 nM,Activity (BV-2 [5]): Dose-Dependent Effect; selectivity ratio (MAO-B): > 41.6; Activity (BV-2 [6]): Dose-Dependent Effect; Activity (BV-2 [7]): Active; Activity (BV-2 [8]): Active; Activity (BV-2 [4]): Non-Toxic; Activity (BV-2 [9]): Non-Toxic
O=C1/C(=C/c2ccc(OCc3ccccc3Cl)cc2)Oc2cc(O)ccc21,81.3%,> 264,380 nM,> 100000 nM,Activity (BV-2 [5]): Dose-Dependent Effect; selectivity ratio (MAO-B): > 27; Activity (BV-2 [10]): inactive; Activity (BV-2 [11]): Active; inhibition (INH) [12]: Active; Activity (BV-2 [7]): Active; Activity (BV-2 [4]): Non-Toxic
O=C1/C(=C/c2ccc(OCc3ccc(F)cc3)cc2)Oc2cc(O)ccc21,68.2%,> 100,1000 nM,> 100000 nM,Activity (BV-2 [5]): Dose-Dependent Effect; selectivity ratio (MAO-B): > 30; Activity (BV-2 [13]): Active; Activity (BV-2 [10]): inactive; Activity (BV-2 [11]): Active; Activity (BV-2 [6]): Dose-Dependent Effect; Activity (BV-2 [4]): Non-Toxic; Activity (BV-2 [9]): Non-Toxic
COc1ccc(/C=C2\Oc3cc(O)ccc3C2=O)c(OC)c1OC,,> 583,,> 100000 nM,
O=C1/C(=C/c2ccc(OCc3ccccc3F)cc2)Oc2cc(O)ccc21,74.2%,> 131,760 nM,> 100000 nM,selectivity ratio (MAO-B): > 13.1; Activity (BV-2 [4]): Non-Toxic
O=C1/C(=C/c2cccc(OCc3ccccc3F)c2)Oc2cc(O)ccc21,73.9%,> 106,950 nM,> 100000 nM,
O=C1/C(=C/c2cccc(OCc3cccc([N+](=O)[O-])c3)c2)Oc2cc(O)ccc21,33.9%,,,,
COc1cccc(COc2cccc(/C=C3\Oc4cc(O)ccc4C3=O)c2)c1,70.1%,> 28.4,1060 nM,> 30000 nM,
O=C1/C(=C/c2cccc(OCc3ccccc3)c2)Oc2cc(O)ccc21,77.8%,> 89.8,1110 nM,> 100000 nM,
O=C1/C(=C/c2cccc(OCc3ccccc3Cl)c2)Oc2cc(O)ccc21,41.7%,,,,
O=C1/C(=C/c2ccc(OCc3cccc([N+](=O)[O-])c3)cc2)Oc2cc(O)ccc21,48.5%,,,,
O=C1/C(=C/c2ccc(OCc3ccc(Cl)cc3)cc2)Oc2cc(O)ccc21,35.6%,,,,
O=C1/C(=C/c2cccc(OCc3ccc(Br)cc3)c2)Oc2cc(O)ccc21,69.6%,> 59.9,1670 nM,> 100000 nM,
